Here are results for one substance from PMC10318527, “Utilization of dietary mixed-linkage β-glucans by the Firmicute Blautia producta” (The Journal of Biological Chemistry, 2023).

The test system of assay [1] is β-glucan utilization locus of B. producta. As to the kind of experiment: RT-qPCR of β-glucan utilization locus genes. It is filed as cell-based, Blautia producta ATCC 27340. As for the experimental part:
Changes in the transcript expression levels of the β-glucan utilization locus of B. producta were performed by RT-qPCR. B. producta was initially cultured in 5 ml of GAM for 24 h and cells were spun down by centrifugation and washed three times with sterile PBS. […] Immediately, 300 μl saturated phenol with citrate buffer (pH 4.3, […] Sigma Aldrich) was added, and the mixed solution was incubated at 60 °C for 5 min with mild shaking. After that, it was centrifuged at 15,000 g for 5 min, and the upper aqueous phase was transferred into a new Eppendorf tube. It was mixed with three volumes of chilled ethanol and incubated for 30 min at -80 °C. The precipitate was then collected by centrifugation at the same speed, the pellet was washed with 70% ethanol twice, and the final white residue was dissolved in 100 to 500 μl of distilled water. The concentration of total RNA was calculated by a spectrophotometer at 260 nm. If a residual amount of DNA was observed, DNase-1 treatment was also given, following the manufacturer's instructions (AMPD1, Sigma Aldrich). About 2 μg total RNA was immediately used for reverse transcription using AccuScript High Fidelity cDNA Synthesis Kit (Agilent). RT-qPCR was performed in a 96-well plate on a CFX96 qPCR system (BioRad) using SYBR Green Master (BioRad), using the primers mentioned in Table S2. The qPCR reactions were executed in 10 μl, consisting of 5 μl of SYBR green mix, 30 ng of cDNA, and one pmol of each primer of a gene of the locus or 16S rRNA (Table S2). […] The 2^ˆ-ΔΔCt method calculated the expression of each gene and normalized data to 16S rRNA transcript level. Finally, the expression level of each gene was calculated as fold change compared with cultures of a minimal medium containing 1% glucose. Three technical replicates were used for bar generation of each gene expression; each bar represents average values and error bars indicate the standard errors of three technical replicates.
A general note: Real-time PCR tracks product formation cycle by cycle.

A further assay deals with BPGH16 mutant E379A. In words: Kinetics of BPGH16 mutant E379A (DNS assay). It is filed as biochemical, Blautia producta ATCC 27340. As for the experimental part: The residues R331, L358, E379, D381, E384, W362, and H398 of BpGH16MLG were mutated to Ala by the Q5Site-Directed Mutagenesis Kit (New England Biolabs, UK, catalogue no. E0554S). Wild-type plasmid BpGH16-pET28a(+) was used as a template, and mutagenic forward and reverse primers were developed using NEBaseChanger with subtle modifications (Table S4). A 25 μl PCR cocktail was prepared for mutating each residue. The final concentration of Q5 Hot Start High-Fidelity 2X Master Mix was 1X, each primer was at 0.5 μM, the amount of used template was 20 ng, and the rest of the volume was made up of nuclease-free water. PCR was executed using the following conditions-initial denaturation was performed at 98 °C for 1 min, for each cycle-denaturation, annealing, and extension (72 °C) were set for 10 s, 20 s, and 7 min, respectively. […] The mutant protein was then expressed as per the protocol mentioned earlier, and kinetics were performed with barley β-glucan.
Reactions were performed in 100 μl volume mixture using recombinant enzyme (final concentration at 0.1 mg/ml) in 50 mM sodium phosphate buffer (pH 5.7) at 37 °C for 1 h of incubation. […] Enzymatic assays were determined with 3,5- dinitrosalicylic acid (DNS) assay ([85]). […] Consequently, recorded the developed color spectrophotometrically at 575 nm ([85]). […]

A further assay relates to BpGH16MLG. As to the kind of experiment: Initial screening of BpGH16MLG against substrates (TLC). It is filed as biochemical, Blautia producta ATCC 27340. As to conditions: pH 5.7, 37 °C, 2 h. As for the experimental part: After the appropriate incubation time, the reaction was terminated by boiling (5 min), and generated oligosaccharides were analyzed by thin layer chromatography (TLC). Typically, 1 μl of the reaction mixture was used for TLC analysis. TLC analysis was performed on Silica Gel 60 F254 (Merck), and produced sugars were visualized by spraying TLC with 5% H2SO4 in ethanol, followed by heating.

A further assay deals with BPGH16 mutant R331A. As to the kind of experiment: Kinetics of BPGH16 mutant R331A (DNS assay). It is filed as biochemical, Blautia producta ATCC 27340. As for the experimental part:
The residues R331, L358, E379, D381, E384, W362, and H398 of BpGH16MLG were mutated to Ala by the Q5Site-Directed Mutagenesis Kit (New England Biolabs, UK, catalogue no. E0554S). Wild-type plasmid BpGH16-pET28a(+) was used as a template, and mutagenic forward and reverse primers were developed using NEBaseChanger with subtle modifications (Table S4). A 25 μl PCR cocktail was prepared for mutating each residue. The final concentration of Q5 Hot Start High-Fidelity 2X Master Mix was 1X, each primer was at 0.5 μM, the amount of used template was 20 ng, and the rest of the volume was made up of nuclease-free water. PCR was executed using the following conditions-initial denaturation was performed at 98 °C for 1 min, for each cycle-denaturation, annealing, and extension (72 °C) were set for 10 s, 20 s, and 7 min, respectively. A total of 25 cycles were performed, and the final extension was for 5 min 5 μl PCR products were loaded on 0.8% agarose gel to conform to the amplification of the mutagenic gene. Ligation of PCR products and cleavage of methylated template DNA was then performed using 5 μl KLD reaction buffer and 1 μl KLD enzyme cocktail at RT for 1 h. It was then transformed into E. coli TOP-10 cells and plasmids were isolated. The obtained plasmids were sequenced to confirm the mutation at the desired location. Once mutation was confirmed in a gene, the mutant plasmid was transformed into Rosetta (DE3) cells for protein expression. The mutant protein was then expressed as per the protocol mentioned earlier, and kinetics were performed with barley β-glucan.
Reactions were performed in 100 μl volume mixture using recombinant enzyme (final concentration at 0.1 mg/ml) in 50 mM sodium phosphate buffer (pH 5.7) at 37 °C for 1 h of incubation. Then, reactions were terminated by boiling for 5 min. Enzymatic assays were determined with 3,5- dinitrosalicylic acid (DNS) assay ([85]). In brief, 0.05 g Na2SO3 and 1 g DNS were mixed in a 50 ml water-containing reagent bottle and stirred about 6 h using a magnetic stirrer. After that, 200 μl phenol was added and made up to 100 ml. A working solution of DNS was prepared by adding 50 μl glucose (20% (w/v) stock) in prepared 100 ml of reagent mixtures and immediately used for experiments without adding NaOH. 80 μl DNS reagent was added to the reaction mixtures and incubated at 100 °C for 10 min, followed by ice-cooling for 10 min. Consequently, recorded the developed color spectrophotometrically at 575 nm ([85]). A standard curve generated by different concentrations of maltose was used for determining released reducing sugars in each case.

Where [2] appears, read: 1% barley β-glucan compared to glucose.

As to Barley β-glucan, in assay [1] (setting [2]), the “upregulation of bp1313 expression” value came to 5.2 fold and the “upregulation of bp1314 expression” value came to 3.9 fold. Further, in assay [1] (barley MLG versus glucose), the “upregulation of bp1316 expression” value came out at 4.7 fold, the “upregulation of bp1317 expression” value amounted to 5 fold and the “upregulation of bp1318 expression” value is recorded as 4.5 fold. Besides, the “fold change in expression of transcriptional regulator bp1315” value in assay [1] (barley β-glucan compared to glucose) was found to be 0.76 fold. For the same substance, the kcat (commonly the number of substrate molecules converted per active site and unit of time at saturation) in the assay on BPGH16 mutant E379A is 0 s⁻¹. Moreover, in the assay on BpGH16MLG, the “activity of BpGH16MLG on substrate (initial screening)” value is recorded as “did cleave”. Also, in the assay on BPGH16 mutant R331A (R331A versus native enzyme), the “increase in Km” value was under 2 fold and the reduction in kcat is listed as about 1.3 fold. In addition, in the assay on BPGH16 mutant R331A (mutant R331A, DNS assay), the Km (commonly the concentration of substrate that gives half-maximal velocity) worked out at 0.35 ± 0.05 mg/mL and the kcat was found to be 48 ± 0.8 s⁻¹.
